Publication PMC8862607 (Molecular microbiology, 2021)
Where two headings read alike, the source gives them in different places.

What was measured:
AntR [1] = molecular target: T1, AntR (Comamonas testosteroni, UniProt A0A096F4H2); assay type: binding, Comamonas testosterone JL40; details: read-out: apparent Kd (ITC)
AntR Y96W derivative = AntR Y96W derivative (Comamonas testosteroni, UniProt A0A096F4H2, Y97W); assay type: binding, Comamonas testosterone JL40; details: read-out: apparent Kd (fluorescence quenching); pH 7.8
AntR [2] = molecular target: T1, AntR; assay type: cell-based, Comamonas testosterone JL40
AntR C103S = assay: Two-plasmid gfp biosensor with AntR C103S mutant in E. coli AW3110; assay type: cell-based, Comamonas testosterone JL40; details: 0.2% arabinose, E. coli AW3110(DE3), Figure 3c
AntR C113S = assay: Two-plasmid gfp biosensor with AntR C113S mutant in E. coli AW3110; assay type: cell-based, Comamonas testosterone JL40; details: 0.2% arabinose, E. coli AW3110(DE3), Figure 3d
[3] = system: AntR binding to the ant operator/promoter DNA; assay type: biochemical, Comamonas testosterone JL40

T1 sequence (A0A096F4H2 1-124): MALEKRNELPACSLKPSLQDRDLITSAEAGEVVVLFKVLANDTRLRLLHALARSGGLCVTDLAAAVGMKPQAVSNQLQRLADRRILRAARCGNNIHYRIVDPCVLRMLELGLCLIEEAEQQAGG
AntR Y96W derivative, sequence (A0A096F4H2 1-124 Y97W): as the sequence (A0A096F4H2 1-124) above, with Y97W counted along it

Compound	Kd (AntR [1]) [µM]	Kd (AntR Y96W derivative) [µM]	induction of gfp expression in biosensor (AntR [2])	response of AntR repressor to metalloid (introductory summary) (AntR [2])	response of C103S mutant biosensor compared with the wild type (AntR C103S)	response of C113S mutant biosensor compared with the wild type (AntR C113S)	induction of gfp expression in biosensor (AntR [2]; 5 µM metalloid, 0.2% arabinose, E. coli AW3110Δars, wild-type AntR)	effect of metal(loid) on AntR mobility shift of ant promoter probe (EMSA) [3]
O[As](O)O [As(III), arsenite]	440	~160	little gfp expression	only weakly	–	–	–	–
C[As](O)O [MAs(III), methylarsenite]	–	–	induced gfp expression	responds	reduced responses	reduced responses	–	–
antimonite [Sb(III)]	57	–	–	responds	reduced responses	reduced responses	induced gfp expression	mobility shift decreased
